The values that follow are results of earlier work, collected in patent US6936590B2, “C-aryl glucoside SGLT2 inhibitors and method” (Bristol Myers Squibb Company, priority 2001, dated 2005).

One data set deals with T1, human SGLT1 (Homo sapiens, UniProt P13866).
T1 sequence (P13866 1-664): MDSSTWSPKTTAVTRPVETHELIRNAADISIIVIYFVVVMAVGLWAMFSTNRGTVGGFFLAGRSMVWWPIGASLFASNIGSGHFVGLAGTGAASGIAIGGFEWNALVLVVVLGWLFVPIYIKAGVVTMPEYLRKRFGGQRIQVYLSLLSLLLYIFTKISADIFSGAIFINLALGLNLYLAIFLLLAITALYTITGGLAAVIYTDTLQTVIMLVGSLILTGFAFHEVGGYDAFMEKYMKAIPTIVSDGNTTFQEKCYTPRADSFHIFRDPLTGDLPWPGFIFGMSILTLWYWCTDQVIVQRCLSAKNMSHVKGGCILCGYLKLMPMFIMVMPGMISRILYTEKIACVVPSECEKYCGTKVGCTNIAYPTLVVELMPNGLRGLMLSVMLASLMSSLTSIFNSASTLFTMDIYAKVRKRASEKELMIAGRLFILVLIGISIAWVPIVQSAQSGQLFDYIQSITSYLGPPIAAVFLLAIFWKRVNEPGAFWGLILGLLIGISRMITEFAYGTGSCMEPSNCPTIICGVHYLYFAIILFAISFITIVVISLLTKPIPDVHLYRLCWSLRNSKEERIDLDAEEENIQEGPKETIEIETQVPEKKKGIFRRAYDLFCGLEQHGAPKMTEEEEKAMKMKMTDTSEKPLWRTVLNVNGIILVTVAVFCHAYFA
The conditions noted are these: read-out: Km values for uptake.

The next data set has as its target T2, human SGLT2 (Homo sapiens, UniProt P31639).
T2 sequence (P31639 1-672): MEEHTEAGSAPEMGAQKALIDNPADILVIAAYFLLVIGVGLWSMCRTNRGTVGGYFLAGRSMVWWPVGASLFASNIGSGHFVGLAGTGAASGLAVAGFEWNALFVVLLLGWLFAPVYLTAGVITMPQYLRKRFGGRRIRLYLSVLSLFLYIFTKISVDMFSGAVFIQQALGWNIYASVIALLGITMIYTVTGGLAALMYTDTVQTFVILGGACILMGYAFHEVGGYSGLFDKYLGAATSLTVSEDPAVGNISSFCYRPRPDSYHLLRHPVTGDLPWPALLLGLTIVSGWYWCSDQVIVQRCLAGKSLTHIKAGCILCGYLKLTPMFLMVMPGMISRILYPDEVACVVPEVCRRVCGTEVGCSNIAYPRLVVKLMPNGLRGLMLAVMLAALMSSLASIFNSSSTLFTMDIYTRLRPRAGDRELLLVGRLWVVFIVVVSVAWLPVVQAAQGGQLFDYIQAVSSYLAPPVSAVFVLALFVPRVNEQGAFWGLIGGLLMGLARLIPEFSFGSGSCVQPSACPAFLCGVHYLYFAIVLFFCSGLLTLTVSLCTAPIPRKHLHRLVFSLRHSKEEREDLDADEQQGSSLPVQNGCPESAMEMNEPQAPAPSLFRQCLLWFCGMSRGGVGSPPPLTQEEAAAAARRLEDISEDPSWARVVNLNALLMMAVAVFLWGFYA
To be noted: read-out: Km values for uptake.

Turning to `CO[C@H]1O[C@H](CO)[C@@H](O)[C@H](O)[C@H]1O` [AMG, α-methyl-D-glucopyranoside], the Km (as a rule, the concentration of substrate that gives half-maximal velocity) at human SGLT1 was 400 µM; on human SGLT2, 1600 µM.
As for `O=C(CCc1ccc(O)cc1)c1c(O)cc(O)cc1O[C@@H]1O[C@H](CO)[C@@H](O)[C@H](O)[C@H]1O` [phlorizin], in the data set on SGLT activity (phlorizin treatment for as long as two weeks), the “adverse effects on plasma ion balance, renal function or renal morphology” value was “No adverse effects on plasma ion balance, renal function or renal morphology have been observed”. For the same compound, the “effect on glucose excretion and plasma glucose” value in the data set with SGLT activity (several diabetic rodent models and one canine diabetes model) was “promoting glucose excretion, lowering fasting and fed plasma glucose, and promoting glucose utilization without hypoglycemic side effects”.
